From patent US20240335432A1, “THERAPEUTIC COMPOUND FOR NEURONAL CEROID LIPOFUSCINOSIS” (JCR PHARMACEUTICALS CO., LTD., priority 2021, published 2024)

Experiments:
CLN2 cells = assay: Observation of autofluorescent material (lipofuscin) in CLN2 patient-derived cells by fluorescence microscopy; format: cell-based, human; conditions: CLN2 cells of 7 donors, 0.1, 1, 10 μM soraprazan, particularly at 10 μM, 10 days; FIGS. 1-8
Description: (§1) Ceroid lipofuscinosis type 2 patient-derived fibroblasts (CLN2 cells, 7 donors: GM09668, GM09669, GM09404, GM10570, GM10672, GM16485, GM16486, Coriell Institute) and normal human dermal fibroblasts (NHDF cells, Cat.No.C-12300, PromoCell GmbH) were cultured in MEM (10370088, Gibco) containing 15% FBS (HyClone) and 1×GlutaMAX™ I (Gibco) (hereafter referred to as MEM). Each cell was diluted to 0.5×10^5 cells/mL with MEM and 15 mL of each cell suspension was seeded in T75 flask (3123-075, IWAKI Inc.). Cells were cultured under 37° C., 5% CO2 conditions.
(§2) Soraprazan (Symeres) was dissolved in Dimethyl sulfoxide (DMSO) to prepare soraprazan stock solution with concentrations of 1, 10, and 100 mM. Each soraprazan stock solution was diluted 1/100 concentration with MEM to prepare media with final concentrations of 0.1, 1, and 10 μM of soraprazan (0.0367, 0.367, and 3.67 μg/mL, respectively). In addition, DMSO was diluted to 1/100 concentration with MEM, which was used as a negative control (0 μM soraprazan). Hereinafter the prepared media herein were referred to as soraprazan-containing media collectively.
Each of the CLN2 cells and the NHDF cells cultured in Example 2-1 was washed twice with Dulbecco's Phosphate-Buffered Saline (DPBS, Gibco) and detached from the flask using 1 mL of 0.25% Trypsin-EDTA (Gibco). […]

[1] = system: CLN2 cells (GM09668, GM09669, GM10570); assay: Quantification of autofluorescence as % Fluorescent Area by image analysis (HALO); format: cell-based, human; conditions: for % Fluorescent Area: 10 days culture
Description: as §1, §2
Each of the CLN2 cells and the NHDF cells cultured in Example 2-1 was washed twice with Dulbecco's Phosphate-Buffered Saline (DPBS, Gibco) and detached from the flask using 1 mL of 0.25% Trypsin-EDTA (Gibco). After 10 mL of MEM was added, each cell was collected in a 15 mL tube and centrifuged at room temperature at 1000 rpm for 5 minutes, and the supernatant was removed. Then, each cell was suspended at cell density of 2×10^5 cells/mL in one of soraprazan-containing media (0, 0.1, 1, and 10 μM). Then the cell suspension was dispensed in 96-well plates (655956, Gliner) with 0.4×10^5 cells per well (200 μL per well). Cells were cultured at 37° C., in the presence of 5% CO2 for 10 days. During the culture, the medium in each well was exchanged to new corresponding soraprazan-containing medium at 3, 6, and 9 days after seeding.
The observation of autofluorescence was performed after changing the medium to FluoroBrite DMEM (A1896701, Gibco) under GFP detection conditions (BZX filter GFP, excitation wavelength:470/40 nm, absorption wavelength:525/50 nm, dichroic mirror: 495 nm).
To quantify the fluorescence intensity of autofluorescence, the same tests as in Examples 2-1 to 2-4 were performed on 3 types of CLN2 cells (GM09668, GM09669, GM10570) using soraprazan-containing medium, which contained 0, 1, and 10 μM of soraprazan, respectively. It was confirmed again that the fluorescent intensity was reduced in cells cultured in soraprazan-containing medium particularly at a concentration of 10 μM. Then, the ratio of the area where fluorescent was detected in the image (fluorescent area) to the total area of the image occupied by the cells (% Fluorescent Area) was calculated using the image analysis software HALO® (v3.2.1851.354, Indica Labs). As the analysis algorithms, Indica Labs-Area Quantification FL v2 1.6 was used. Herein the area where fluorescent was detected, irrespective of the fluorescent intensity, was defined as fluorescent area, which corresponds the area where a certain amount of lipofuscin existed.

[2] = system: PPT1 knockout (KO) HEK293T cells or PPT1 KO CHO cells; assay: Lipofuscin fluorescence emission measurement in pathological model cells; format: cell-based; conditions: final soraprazan concentrations 100 μM-10 nM, versus 100% DMSO added
Description: Using mammalian cells in which a causative gene of neuronal ceroid lipofuscinosis has been knocked out as pathological model cells, a test can be performed in which an effect of removing lipofuscin accumulated in the cells by soraprazan is evaluated. For example, using PPT1 knockout (KO) HEK293T cells or PPT1 KO CHO cells, which are pathological model cells of neuronal ceroid lipofuscinosis type 1 (CLN1), a test can be performed in which an effect of removing lipofuscin accumulated in the cells by soraprazan is evaluated. Acquisition of a PPT1 KO cell line can be achieved using a conventionally known method.
Soraprazan is dissolved in dimethyl sulfoxide (DMSO) to a concentration of 10 mM. […]
Relative amounts of lipofuscin accumulated in cells can be measured by observing green autofluorescence emitted from the cells using a fluorescence microscope as described below. […] Then, under a fluorescence microscope, for example, excitation light with wavelength of 485 nm is irradiated to the cells and strength of emitted light from the cells with wavelength of 521 nm is measured. As a fluorescence microscope, for example, EVOS FLoid Imaging System (Thermo Fisher Scientific) can be used, and in this case, wavelengths of excitation light and observation light can be respectively set to 482 nm and 532 nm. […]

TPP1 knockout (KO) mice = assay: Administration test using pathological model animals, fluorescence intensities of tissues; format: in vivo, mouse; conditions: oral or intravenous soraprazan versus negative control group
Description: A test can be performed in which an effect of soraprazan on removing lipofuscin accumulated in animal tissues by soraprazan is evaluated using mammals in which a causative gene of neuronal ceroid lipofuscinosis has been knocked out as pathological model animals. For example, a test can be performed in which an effect of soraprazan on removing lipofuscin accumulated in mouse tissues by soraprazan is evaluated using TPP1 knockout (KO) mice, which are neuronal ceroid lipofuscinosis type 2 (CLN2) pathological model cells. Generation of the TPP1 KO mice can be performed using a conventionally known method. […]
After a certain time period, for example 0.25, 0.5, 1, 2, 4, 6, 8, or 24 hours after the last administration of a chronic treatment between one week and 12 months, all TPP1 KO mice are anesthetized with isoflurane and perfused with saline from the left ventricle for 4-5 minutes for blood removal. After that, tissues (brain, heart, lungs, liver, spleen, kidneys, quadriceps, thymus, thoracic vertebrae, femur) and peripheral blood, of which fluorescence intensities are to be measured, are collected, and are stored in physiological saline to prevent drying. Fluorescence intensity measurement of lipofuscin is performed using an appropriate fluorescence intensity measuring instrument. […]

Compound: COCCO[C@@H]1c2ccn3c(C)c(C)nc3c2N[C@H](c2ccccc2)[C@H]1O [Soraprazan, soraprazan]
- fluorescent intensity (autofluorescence, lipofuscin accumulation) (CLN2 cells): markedly reduced
- fluorescent intensity (autofluorescence) ([1]; 3 types of CLN2 cells, 1 and 10 μM soraprazan, particularly at 10 μM, FIGS. 9-11): reduced
- % Fluorescent Area ([1]; GM09668 cells, 1 μM soraprazan): 0.944%
- % Fluorescent Area ([1]; GM09668 cells, 10 μM soraprazan): 2.07%
- % Fluorescent Area ([1]; GM09669 cells, 1 μM soraprazan): 10.9%
- % Fluorescent Area ([1]; GM09669 cells, 10 μM soraprazan): 2.34%
- % Fluorescent Area ([1]; GM10570 cells, 1 μM soraprazan): 12.3%
- % Fluorescent Area ([1]; GM10570 cells, 10 μM soraprazan): 0.766%
- amount of lipofuscin accumulated in the cells (fluorescence intensity) [2]: decreases according to the concentration of soraprazan
- amount of lipofuscin accumulated in each of the tissues (fluorescence intensity) (TPP1 knockout (KO) mice): reduces the amount of lipofuscin
